In this test the target is T1, Angiotensin II (A II) receptor (Oryctolagus cuniculus, UniProt P34976).
T1 construct: membrane preparation derived from rabbit aortae; tissue Pel-Freeze Biologicals; host or cells: rabbit aorta membrane preparation
T1 sequence (P34976 1-359): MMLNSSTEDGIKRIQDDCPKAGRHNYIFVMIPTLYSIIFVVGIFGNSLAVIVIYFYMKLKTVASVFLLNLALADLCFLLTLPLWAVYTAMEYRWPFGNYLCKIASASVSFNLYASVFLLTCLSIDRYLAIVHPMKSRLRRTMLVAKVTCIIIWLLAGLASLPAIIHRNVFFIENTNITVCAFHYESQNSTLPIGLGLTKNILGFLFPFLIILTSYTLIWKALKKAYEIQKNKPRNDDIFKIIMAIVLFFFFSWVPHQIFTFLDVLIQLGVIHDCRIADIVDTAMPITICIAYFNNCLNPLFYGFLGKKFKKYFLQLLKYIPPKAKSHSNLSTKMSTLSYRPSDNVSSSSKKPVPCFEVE
In words: Receptor binding assay using rabbit aortae membrane preparation (displacement of 125I-Sar1 Ile8-angiotensin II; "IC50" assay). The procedure: This assay is also referred to herein as the "IC50 " assay.
RECEPTOR BINDING ASSAY USING RABBIT AORTAE MEMBRANE PREPARATION
Three frozen rabbit aortae (obtained from Pel-Freeze Biologicals) were suspended in 5 mM Tris-0.25M Sucrose, pH 7.4 buffer (50 ml) homogenized, and then centrifuged. The mixture was filtered through a cheesecloth and the supernatant was centrifuged for 30 minutes at 20,000 rpm at 4° C. The pellet thus obtained was resuspended in 30 ml of 50 mM Tris-5 mM MgCl2 buffer containing 0.2% Bovine Serum Albumin and 0.2 mg/ml Bacitration and the suspension was used for 100 assay tubes. Samples tested for screening were done in duplicates. To the membrane preparation (0.25 ml) there was added ^125 I-Sar^1 Ile^8 -angiotensin II [obtained from New England Nuclear] (10 ul; 20,000 cpm) with or without the test sample and the mixture was incubated at 37° C. for 90 minutes. The mixture was then diluted with ice-cold 50 mM Tris-0.9% NaCl, pH 7.4 (4 ml) and filtered through a glass fiber filter (GF/B Whatman 2.4" diameter). The filter was soaked in scintillation cocktail (10 ml) and counted for radioactivity using Packard 2660 Tricarb liquid scintillation counter. […]
Background: Loss of bound radioactivity is the signal in a displacement assay; it reports binding, not function.

The structures appear in SMILES notation. Bounds are passed on as bounds.

`CCc1nc2c(C)cc(C)nc2n1Cc1ccc(-c2ccccc2-c2nnn([C@@H]3O[C@H](C(=O)O)[C@@H](O)[C@H](O)[C@H]3O)n2)cc1` [compound (I)]: the “A II antagonist activity by the IC50 assay” value is listed as “exhibits A II antagonist activity”. The IC50 (37° C., 90 minutes, read-out: inhibitory concentration (IC50) giving 50% displacement of the total specifically bound 125I-Sar1 Ile8-angiotensin II) was less than 50 µM.

The values above are taken from patent publication US5057522A, “Anti-hypersensitive N2-tetrazole-β-glucuronide analog” (Merck & Co., Inc., priority 1990, dated 1991).
